Results reported in patent publication US8389544B2, “Isoquinolone compounds as subtype-selective agonists for melatonin receptors MT1 and MT2” (The Hong Kong University of Science and Technology, priority 2007, dated 2013).

Columns and labels:
Assay type in all cases: cell-based
MT1 receptor = MT1 receptor (Homo sapiens, UniProt P48039); test: cAMP assay, MT1; design: expressed in transfected cells; host or cells: COS-7 (monkey kidney fibroblast); conditions: inhibition of forskolin-stimulated cAMP production; MT1-expressing cells
MT1 receptor, sequence (P48039 whole entry): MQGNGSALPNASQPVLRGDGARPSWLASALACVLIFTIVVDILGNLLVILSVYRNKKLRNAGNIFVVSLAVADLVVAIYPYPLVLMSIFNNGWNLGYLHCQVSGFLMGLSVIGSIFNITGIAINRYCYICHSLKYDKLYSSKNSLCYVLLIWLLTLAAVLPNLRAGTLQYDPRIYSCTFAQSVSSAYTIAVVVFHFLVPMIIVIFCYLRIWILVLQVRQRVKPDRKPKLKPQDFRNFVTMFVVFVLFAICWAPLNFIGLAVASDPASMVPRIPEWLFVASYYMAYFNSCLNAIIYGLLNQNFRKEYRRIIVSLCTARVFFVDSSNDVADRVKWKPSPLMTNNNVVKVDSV

MT1/293 = test: MTT cytotoxicity assay, MT1/293 cells; conditions: percentage of untreated control cells
Experimental: This assay evaluates the cytotoxic effects of the novel isoquinolone compounds based on the cellular viability under chronic treatments. Viable cells but not dead cells can turn the substrate into a colored product, which yields higher absorbance. […] A low percentage indicates low cytoviability (or high cytotoxicity).
5. Cytotoxicity Test Using MTT Assay
Cells were seeded into clear 96-well plate at an appropriate density in 100 μl growth medium and were allowed to grow overnight. The novel isoquinolone compounds were diluted to desired concentrations using fresh growth medium, and these dilutions were used to replace the growth media in each well. After incubating for 24-96 h, 10 μl of the MTT labeling reagent (Roche) was added to each well and the cells were incubated in a CO2 incubator for 4 h. 100 μl solubilization buffer was then added into each well and incubated overnight for complete solubilization of the purple formazan crystals. […] Each condition was performed in triplicate in every experiment and the results were expressed as % of blank control±SD.

MT2 receptor [1] = molecular target: T1, MT2 receptor (Homo sapiens, UniProt P49286); test: ERK phosphorylation assay, MT2; design: expressed in transfected cells; conditions: HEK293 cells; isoquinolone 1 μM or 2-iodomelatonin 100 nM, 5 min; against unstimulated control cells
T1 sequence (P49286 1-362): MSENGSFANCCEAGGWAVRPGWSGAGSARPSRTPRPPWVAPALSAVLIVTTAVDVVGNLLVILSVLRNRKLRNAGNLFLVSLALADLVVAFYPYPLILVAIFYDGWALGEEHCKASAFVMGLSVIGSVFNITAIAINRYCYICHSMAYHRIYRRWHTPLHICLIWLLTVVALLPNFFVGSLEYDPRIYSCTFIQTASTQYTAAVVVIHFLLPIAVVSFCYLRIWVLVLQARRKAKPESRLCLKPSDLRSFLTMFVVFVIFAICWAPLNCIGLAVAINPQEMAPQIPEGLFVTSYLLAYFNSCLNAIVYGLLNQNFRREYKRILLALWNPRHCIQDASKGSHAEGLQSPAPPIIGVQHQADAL
From the text: 3. ERK Phosphorylation Assay This assay indicates the ability of the novel compounds to activate MT1 or MT2 receptors by measuring downstream events of the activated receptor, in this case ERK phosphorylation. The amount of phosphorylated ERK1/2 was detected and quantified in western blots. The data in Table 2 is expressed as the fold stimulation against the unstimulated control cells. 6. Detection of ERK phosphorylation […] Stimulation was terminated by aspiration on ice and immediate lysis by 200 μl of 1× protein gel loading buffer. Lysates were denatured by boiling for 5 min and cooled at room temperature until loading. 30 μl of each lysate was separated on 12% SDS-PAGE and transferred to nitrocellulose membrane by electroblotting. Success of transfer was visualized by Ponceau S staining. All subsequent incubations were under gentle agitation (˜100 strokes/min). […] Primary antisera against phosphorylated- or total-ERK1/2 were incubated with the blocked membrane at an appropriate dilution (1:4000-1:2000) in Blotto for overnight at 4° C. The membrane was washed with fresh Blotto for 3 times of 15 min each, then incubated with secondary antiserum (horseradish peroxidase-conjugated anti-rabbit IgG) at the dilution of 1:1000 in 1×TBS for 1 h at room temperature. The membrane was quickly rinsed with excessive 1×TBS for 3 times, and followed by 4 washes of 1×TBS for 10 min. By the end, a premix of luminol-based chemiluminescence substrate solution was prepared (1 ml for every 8 cm^2 of membrane) and overlaid onto the washed membrane to incubate for 1 min. After removing excessive solution, the membrane was covered with saran wrap and an autograph with appropriate exposure was developed on X-ray film in dark room. The image was scanned and the band intensities quantified using ImageJ 1.34. Data was expressed as the percentage response of the vehicle-treated or untreated samples. Experiments were performed at least 3 times and the average responses±SEM were presented.

MT2 receptor [2] = molecular target: T1, MT2 receptor; test: CRE-Luc (luciferase reporter gene) assay, MT2; design: expressed in transfected cells; conditions: HEK 293-pCREluc cells with MT2; inhibition of forskolin response
Experimental: The luciferase reporter gene assay offers another way to measure melatonin receptor activation. Cells expressing cAMP-responsive element-driven luciferase reporter gene (293-pCREluc) and either the MT1 or MT2 receptor are treated with forskolin (a substance which stimulates cAMP production as well as the subsequent luciferase gene expression) alone or with a novel isoquinolone compound. As melatonin receptor activation inhibits cAMP production, any suppression in the expression of luciferase leads to a decrease in enzymatic activities and a reduction in the amount of luminescence signal generated.
The luciferase assay, a reporter gene assay, was performed to confirm the ability of the invention to activate the melatonin receptors. Prior to the assay, HEK (human embryonic kidney) 293 cells are stably transfected with cAMP-responsive element-driven luciferase reporter gene (293-pCREluc) and cDNAs encoding MT1 or MT2 receptors. The cells are then exposed to the novel isoquinolone compounds, after which the substrate luciferin is added and the resulting luminescence measured.
Prior to the assay human embryonic kidney (HEK) 293 cells (CRL-1573, ATCC) is maintained at 37° C. in minimum essential medium (MEM) supplemented with 10% fetal bovine serum (FBS), 100 units/ml penicillin and 100 μg/ml streptomycin in a humidified atmosphere containing 5% CO2. Human embryonic kidney 293 cells stably transfected with cAMP-responsive element-driven luciferase reporter gene (293-pCREluc) are established and maintained in growth medium supplemented with 300 μg/ml G418 sulphate.
For luciferase assays, HEK-293 cells stably expressing pCRE-luciferase are seeded at a density of 15,000 cells/well into 96 well plates. Transfection is carried out using Lipofectamine Plus® reagent at 0.2 μl of both Plus and lipofectamine reagents with 50 ng cDNAs encoding MT1 or MT2 receptors per well. After a 3 hour transfection period at 37° C., 50 μl of DMEM with 20% fetal calf serum (FCS) is added into the wells and the plate is incubated at 37° C. for 48 h prior to 24 hour serum starvation. […]
Cells are harvested by replacing medium in the well by 50 μl luciferase lysis buffer. The Berthold microplate luminometer is maintained at 25° C. throughout the assay. Injector M connected to an empty tube and P connected to the drug tube are set to inject 25 μl of luciferin into appropriate wells. A 1.6 second delay time followed by a 1 second measuring time period is assigned to injector M, whereas injector P is measured for 10 seconds after luciferase substrate is introduced into the well. Results are expressed as relative luminescent units (RLU). Where indicated, agonist-induced activity is expressed as a percentage of the RLU obtained with forskolin.

MT2 receptor [3] = molecular target: T1, MT2 receptor; test: cAMP assay, MT2; design: expressed in transfected cells; host or cells: COS-7 (monkey kidney fibroblast); conditions: inhibition of forskolin-stimulated cAMP production; MT2-expressing cells

Structure (SMILES)	cAMP Assay MT1 % Inh (MT1 receptor)	MTT Assay MT1/293 % Viability ± SEM (MT1/293)	ERK Phosphorylation MT2 Fold Stim. (MT2 receptor [1])	CRE-Luc Assay MT2 % Inh ± SEM of 1 μM Fsk (MT2 receptor [2])	cAMP Assay MT2 % Inh (MT2 receptor [3])
Cn1ccc2cc(OC(=O)c3ccccc3)c(OC(=O)c3ccccc3)cc2c1=O [IS039]	8.8 ± 5.8%	108.5 ± 3.2%	1.98 Fold	69.8 ± 7.2%	4.2 ± 6.8%
COc1cc(COc2cc3ccn(C)c(=O)c3cc2OC)cc(OC)c1 [IS042]	81.8 ± 6.2%	71.6 ± 4.7%	5.59 Fold	71.3 ± 8.8%	58.7 ± 5.8%
COc1cccc(COc2cc3ccn(C)c(=O)c3cc2OC)c1 [IS044]	72.9 ± 7.5%	112.6 ± 5.8%	3.50 Fold	73.9 ± 12.4%	62.5 ± 4.0%
COc1cccc(COc2cc3c(=O)n(C)ccc3cc2OC)c1 [IS521]	19.4 ± 17.4%	89.8 ± 8.3%	3.01 Fold	70.2 ± 9.2%	63.2 ± 4.9%
COc1cc(COc2cc3c(=O)n(C)ccc3cc2OC)cc(OC)c1 [IS523]	18.6 ± 14.7%	51.6 ± 1.1%	2.07 Fold	71.6 ± 16.3%	50.8 ± 9.1%
COc1cc2ccn(C)c(=O)c2cc1OCc1ccc(C(C)(C)C)cc1 [IS526]	26.9 ± 24.1%	25.0 ± 4.4%		17.8 ± 4.7%	−63.9 ± 59.2%
COc1cccc(COc2c(OC)ccc3c(=O)n(C)ccc23)c1 [IS527]	28.3 ± 16.0%	57.1 ± 3.0%	2.21 Fold	61.0 ± 9.3%	51.4 ± 12.1%
COc1cc(COc2c(OC)ccc3c(=O)n(C)ccc23)cc(OC)c1 [IS528]	39.2 ± 12.0%	50.2 ± 5.7%	1.71 Fold	60.8 ± 8.5%	49.4 ± 13.2%
COc1ccc2c(=O)n(C)ccc2c1OCc1ccc(C)cc1 [IS529]	34.0 ± 17.4%	54.9 ± 2.5%	1.23 Fold	61.3 ± 13.1%	37.7 ± 11.9%
